The results in this text go back to patent US6127339A, “Peptide for binding thereto a low density lipoprotein” (Asahi Kasei Kogyo Kabushiki Kaisha, priority 1995, dated 2000).

No end group written: not given here.

For the first assay, the system named is LDL. Nature of the assay: Staining of peptide-bonded resin with biotinylated LDL in plasma (ABC method). The following applies: Table 1, peptide-bonded TG resin, room temperature 1 hour, peroxidase-streptoavidin/3,3'-diaminobenzidine. Also on record: key: the peptide-bonded resins which were stained are indicated with "+ (plus)"; the peptide-bonded resins which were not stained are indicated with "- (minus)". The assay is classed as binding. The method, then: With respect to the adsorbent comprising the water-insoluble carrier having bonded thereto the peptide, as a method for evaluating the binding ability (affinity) of the adsorbent for an LDL, there can be mentioned a method in which, after causing an LDL to be adsorbed on the adsorbent, the adsorbent having the LDL adsorbed thereon is subjected to staining (avidin-biotin complex method, that is, ABC method). Specifically, a biotinylated LDL is added to plasma, and the adsorbent is immersed in the plasma for a predetermined period of time. Then, the adsorbent is taken out of the plasma, and washed. Subsequently, the adsorbent is immersed in a horseradish peroxidase-labeled streptoavidin solution, and a solution of 3,3'-diamino benzidine, which is a substrate for the above-mentioned enzyme (horseradish peroxidase), is added thereto, thereby staining the adsorbent. The binding ability of the adsorbent for LDL is evaluated from the degree of the staining. With respect to methods for evaluating a binding ability for LDL, reference can be made to, for example, the following literature: S. M. Hsu, L. Raine, H. Fanger, J. Histchem. Cytochem., 29, 577 (1981); and H. Towbin, T. Staehelin, J. Gordon, Proc. Natl. Acad. Sci. U.S.A., 76, 4350 (1979).
The ability of each of the peptides to bind thereto an LDL was evaluated as follows. To a blood sample obtained from a healthy person was added a 3.8% aqueous solution of sodium citrate to thereby obtain a mixture. The obtained mixture was centrifuged to separate the blood sample into a blood cells component and a plasma component.
On the other hand, each of the above-mentioned polystyrene resins having bonded thereto the above-synthesized peptides was individually taken out from the synthesis reaction system and packed in a column having a filter (manufactured and sold by Bio-Rad laboratories, U.S.A.). Subsequently, the plasma-LDL mixture prepared above was added to the column, and the column was allowed to stand at room temperature for 1 hour. Then, the column was washed with a physiological saline containing 0.1% Tween 20 and sodium phosphate. After the washing, 1 ml of a horseradish peroxidase-labeled streptoavidine (0.2 ug/ml) solution containing 10% Block Ace (manufacturedand sold by Dainippon Pharmaceutical Co., Ltd., Japan) was added to the column, and the column was allowed to stand at room temperature for 30 minutes. Then, 1 ml of a 3,3'-diaminobenzidine tetrahydrochloride ([…]) solution containing 0.005% hydrogen peroxide was added to the column (by the addition of this solution, when a peptide-bonded resin contained in the column has the LDL bonded thereto, the resin is stained to assume brown color).
Results are shown in Table 1, wherein the peptide-bonded resins which were stained are indicated with "+ (plus)" and the peptide-bonded resins which were not stained are indicated with "- (minus)".
The ability of each of the peptides to bind thereto an LDL was evaluated in substantially the same manner as in Example 1.
On to “Comparative Example 1 Sample 1: comparative pentapeptide N1-N5 = R A H I N, bonded to TG polystyrene resin (RAHIN; not fully specified; printed as Arg Ala His Ile Asn) [reference compound]”, for which the Stain result was “-”. “Comparative Example 1 Sample 2: comparative pentapeptide N1-N5 = P K S I N, bonded to TG polystyrene resin (PKSIN; not fully specified; printed as Pro Lys Ser Ile Asn) [reference compound]”: the Stain result is “-”. The same measure, in the same setting: the entry for “Comparative Example 1 Sample 3: comparative pentapeptide N1-N5 = L H R H L, bonded to TG polystyrene resin (LHRHL; not fully specified; printed as Leu His Arg His Leu) [reference compound]” is “-”. In the case of “Comparative Example 1 Sample 4: comparative pentapeptide N1-N5 = L T M K M, bonded to TG polystyrene resin (LTMKM; not fully specified; printed as Leu Thr Met Lys Met) [reference compound]”, the Stain result was “-”. Still for that read-out and setting: the entry for “Comparative Example 1 Sample 5: comparative pentapeptide N1-N5 = M L T V R, bonded to TG polystyrene resin (MLTVR; not fully specified; printed as Met Leu Thr Val Arg) [reference compound]” is “-”.

For the substance “Example 1 Sample 1: pentapeptide N1-N5 = R F Y Y M, bonded to TG polystyrene resin (RFYYM; not fully specified; printed as Arg Phe Tyr Tyr Met)”, the Stain result is reported as “+”. Same read-out and setting: as for “Example 1 Sample 2: pentapeptide N1-N5 = F K I W W, bonded to TG polystyrene resin (FKIWW; not fully specified; printed as Phe Lys Ile Trp Trp)”, the entry is “+”; as for “Example 1 Sample 3: pentapeptide N1-N5 = W Q R H F, bonded to TG polystyrene resin (WQRHF; not fully specified; printed as Trp Gln Arg His Phe)”, “+”. Still for that read-out and setting: as for “Example 1 Sample 4: pentapeptide N1-N5 = I F Y K W, bonded to TG polystyrene resin (IFYKW; not fully specified; printed as Ile Phe Tyr Lys Trp)”, the entry is “+”; as for “Example 1 Sample 5: pentapeptide N1-N5 = W A L Y R, bonded to TG polystyrene resin (WALYR; not fully specified; printed as Trp Ala Leu Tyr Arg)”, “+”.

The same assay, now with this note: Table 2, peptide-bonded TG resin, same manner as Example 1.
On to “Comparative Example 2 Sample 1: comparative pentapeptide N1-N5 = T H R Q R, bonded to TG polystyrene resin (THRQR; not fully specified; printed as Thr His Arg Gln Arg) [reference compound]”, for which the Stain result is listed as “-”.

On to “Comparative Example 2 Sample 2: comparative pentapeptide N1-N5 = H Y Y L Q, bonded to TG polystyrene resin (HYYLQ; not fully specified; printed as His Tyr Tyr Leu Gln) [reference compound]”, for which the Stain result is “-”. Same read-out and setting: the entry for “Comparative Example 2 Sample 3: comparative pentapeptide N1-N5 = W H V Q T, bonded to TG polystyrene resin (WHVQT; not fully specified; printed as Trp His Val Gln Thr) [reference compound]” is “-”. Turning to “Comparative Example 2 Sample 4: comparative pentapeptide N1-N5 = P N A F A, bonded to TG polystyrene resin (PNAFA; not fully specified; printed as Pro Asn Ala Phe Ala) [reference compound]”, the Stain entry is listed as “-”. For the substance “Comparative Example 2 Sample 5: comparative pentapeptide N1-N5 = H W V V H, bonded to TG polystyrene resin (HWVVH; not fully specified; printed as His Trp Val Val His) [reference compound]”, the Stain entry is on record as “-”. On to “Comparative Example 2 Sample 6: comparative pentapeptide N1-N5 = Y I Q V W, bonded to TG polystyrene resin (YIQVW; not fully specified; printed as Tyr Ile Gln Val Trp) [reference compound]”, for which the Stain entry is listed as “-”. With “Comparative Example 2 Sample 7: comparative pentapeptide N1-N5 = F G A I V, bonded to TG polystyrene resin (FGAIV; not fully specified; printed as Phe Gly Ala Ile Val) [reference compound]”, the Stain entry is given as “-”. Still for that read-out and setting: as for “Comparative Example 2 Sample 8: comparative pentapeptide N1-N5 = H A S N P, bonded to TG polystyrene resin (HASNP; not fully specified; printed as His Ala Ser Asn Pro) [reference compound]”, the entry is “-”; as for “Comparative Example 2 Sample 9: comparative pentapeptide N1-N5 = E W S M T, bonded to TG polystyrene resin (EWSMT; not fully specified; printed as Glu Trp Ser Met Thr) [reference compound]”, “-”; as for “Comparative Example 2 Sample 10: comparative pentapeptide N1-N5 = F I I M E, bonded to TG polystyrene resin (FIIME; not fully specified; printed as Phe Ile Ile Met Glu) [reference compound]”, “-”. On the same count and under the same terms, as for “Comparative Example 2 Sample 11: comparative pentapeptide N1-N5 = W V D H N, bonded to TG polystyrene resin (WVDHN; not fully specified; printed as Trp Val Asp His Asn) [reference compound]”, the entry is “-”. Still for that read-out and setting: as for “Comparative Example 2 Sample 12: comparative pentapeptide N1-N5 = E A K H E, bonded to TG polystyrene resin (EAKHE; not fully specified; printed as Glu Ala Lys His Glu) [reference compound]”, the entry is “-”; as for “Comparative Example 2 Sample 13: comparative pentapeptide N1-N5 = F N F E S, bonded to TG polystyrene resin (FNFES; not fully specified; printed as Phe Asn Phe Glu Ser) [reference compound]”, “-”; as for “Comparative Example 2 Sample 14: comparative pentapeptide N1-N5 = V E E M E, bonded to TG polystyrene resin (VEEME; not fully specified) [reference compound]”, “-”. Turning to “Example 2 Sample 1: pentapeptide N1-N5 = W T A R R, bonded to TG polystyrene resin (WTARR; not fully specified; printed as Trp Thr Ala Arg Arg)”, the Stain entry was “+”. On the same count and under the same terms, as for “Example 2 Sample 2: pentapeptide N1-N5 = F A Y R R, bonded to TG polystyrene resin (FAYRR; not fully specified; printed as Phe Ala Tyr Arg Arg)”, the entry is “+”; as for “Example 2 Sample 3: pentapeptide N1-N5 = R W I L Q, bonded to TG polystyrene resin (RWILQ; not fully specified; printed as Arg Trp Ile Leu Gln)”, “+”; as for “Example 2 Sample 4: pentapeptide N1-N5 = R F W L F, bonded to TG polystyrene resin (RFWLF; not fully specified; printed as Arg Phe Trp Leu Phe)”, “+”.
